Measurements taken from patent publication US4321381A, “Ergot derivatives” (Farmitalia Carlo Erba S.p.A., priority 1978, dated 1982).

What was measured:
[1] = test system: spontaneously hypertensive male rats, strain MHS; assay: Anti-hypertensive activity in the spontaneously hypertensive rat (MHS): blood pressure and heart rate at the tail; assay type: in vivo
Procedure: 1. Spontaneously Hypertensive Rat (MHS)
Four spontaneously hypertensive male rats, strain MHS, weight 250 to 300 g for each group were used. The animals were treated for four consecutive days. The drugs were administered by gastric gavage while suspended in 5% arabic gum (0.2 ml/100 g body weight), and blood pressure (BP) and heart rate (HR) were measured at the tail by BP Recorder W+W. Blood pressure and heart rate were measured on the first and fourth day of treatment 1 hour before and 1 and 5 hours after drug administration.

normotensive rats = assay: Blood pressure and heart rate in the conscious normotensive rat (NR); assay type: in vivo; settings: 5 mg/kg os
Procedure: Blood pressure recordings have been made in conscious normotensive unrestrained rats weighing approximately 300 g, via a catheter chronically inserted into the left common carotid artery. Implantation of arterial cannula was made under sodium pentobarbital anesthesia (50 mg/kp i.p.) A 1 cm long incision was made through the previously shaved ventral surface of the neck and the tissues overlying the trachea parted by blunt dissection to reveal the carotid artery. The polyethylene catheter used was made with PE 50 tubing, previously filled with saline containing 250 I.U./ml heparin. The tip of the cannula was pushed at least 2 cm inside the vessel toward the heart. The cannula was then firmly tied and passed beneath the skin to emerge from a small incision in the back of the neck. During the post-operative period and before the start of each recording session, the cannula was flushed through daily with saline containing heparin (250 I.U./ml). The experiments were performed two days after surgery. Drugs were administered by gastric gavage.

[2] = Acute toxicity (LD50) in mice; assay type: in vivo, mouse; settings: mouse, in vivo; male mice; oral; observed for seven days
Description: Evaluation of the Toxicity (LD50)
Ten male mice for each group were orally treated with drugs at different dose levels for the determination of lethal dose 50 (LD50).

| Compound | Change in BP, 1 hr after dose, first day ([1]; 5 mg/kg os) | Change in BP, 5 hrs after dose, first day ([1]; 5 mg/kg os) | Change in BP, 1 hr after dose, fourth day ([1]; 5 mg/kg os) | Change in BP, 5 hrs after dose, fourth day ([1]; 5 mg/kg os) | Change in Blood Pressure after Treatment, 30' (normotensive rats) | Change in heart rate after treatment, 30' (normotensive rats) | Change in Blood Pressure after Treatment, 60' (normotensive rats) | Change in heart rate after treatment, 60' (normotensive rats) | Change in Blood Pressure after Treatment, 120' (normotensive rats) | Change in heart rate after treatment, 120' (normotensive rats) | Change in Blood Pressure after Treatment, 180' (normotensive rats) | Change in heart rate after treatment, 180' (normotensive rats) | Change in Blood Pressure after Treatment, 240' (normotensive rats) | Change in heart rate after treatment, 240' (normotensive rats) | Change in Blood Pressure after Treatment, 360' (normotensive rats) | Change in heart rate after treatment, 360' (normotensive rats) | Change in Blood Pressure after Treatment, 24h (normotensive rats) | Change in heart rate after treatment, 24h (normotensive rats) | Change in BP, 1 hr after dose, first day ([1]; 2 mg/kg os) | Change in HR, 1 hr after dose, first day ([1]; 2 mg/kg os) | other results |
| --- | --- | --- | --- | --- | --- | --- | --- | --- | --- | --- | --- | --- | --- | --- | --- | --- | --- | --- | --- | --- | --- |
| N#CC(CC1CC2c3cccc4[nH]cc(c34)CC2N(CC2CC2)C1)C(N)=O (stereo not drawn) [355/1323, 2-Cyano-3-(6'-methylcyclopropylergoline-8'β)-propionamide] | -15 mm Hg | -20 mm Hg | -20 mm Hg | -30 mm Hg | – | – | – | – | – | – | – | – | – | – | – | – | – | – | – | – | – |
| CC(C)N1C[C@H](CC(C#N)C(N)=O)C[C@@H]2c3cccc4[nH]cc(c34)C[C@H]21 (stereo partly drawn) [Example 37, 2-Cyano-3-(6'-isopropylergoline-8'β)-propionamide] | -30 mm Hg | -25 mm Hg | -45 mm Hg | -35 mm Hg | – | – | – | – | – | – | – | – | – | – | – | – | – | – | – | – | – |
| CN1C[C@H](CC(C#N)C(=O)N2CCCC2)C[C@@H]2c3cccc4[nH]cc(c34)C[C@H]21 (stereo partly drawn) [Example 1133, 2-Cyano-3-(6'-methylergoline-8'β)-N-propionyl-pyrrolidine] | -24 mm Hg | -9 mm Hg | -42 mm Hg | -25 mm Hg | -15 mm Hg | -25 b/min | -20 mm Hg | -45 b/min | -15 mm Hg | -40 b/min | -10 mm Hg | -40 b/min | -9 mm Hg | -10 b/min | 0 mm Hg | -5 b/min | +5 mm Hg | 0 b/min | -20 mm Hg | -33 b/min | Change in HR, 5 hr after dose, first day ([1]; 2 mg/kg os): -28 b/min; Change in BP, 5 hrs after dose, first day ([1]; 2 mg/kg os): -11 mm Hg; Change in BP, 1 hr after dose, fourth day ([1]; 2 mg/kg os): -21 mm Hg; Change in HR, 1 hr after dose, fourth day ([1]; 2 mg/kg os): -20 b/min; Change in HR, 5 hr after dose, fourth day ([1]; 2 mg/kg os): -3 b/min; Change in BP, 5 hrs after dose, fourth day ([1]; 2 mg/kg os): -10 mm Hg; Change in HR, 1 hr after dose, first day ([1]; 5 mg/kg os): 0 b/min; Change in HR, 5 hr after dose, first day ([1]; 5 mg/kg os): +13 b/min; Change in HR, 1 hr after dose, fourth day ([1]; 5 mg/kg os): -13 b/min; Change in HR, 5 hr after dose, fourth day ([1]; 5 mg/kg os): -8 b/min; LD50 at 168 h [2]: 500 mg/kg |
| CCNC(=O)C(C#N)CC1CC2c3cccc4[nH]cc(c34)CC2N(CC2CC2)C1 (stereo not drawn) [355/1324, 2-Cyano-3-(6'-methylcyclopropylergoline-8β)-N-ethylpropionamide] | -20 mm Hg | -40 mm Hg | -40 mm Hg | -35 mm Hg | – | – | – | – | – | – | – | – | – | – | – | – | – | – | – | – | – |
| NNc1nncc2ccccc12 [Hydralazine, hydralazine, reference compound] | -52 mm Hg | -38 mm Hg | -7 mm Hg | -8 mm Hg | -19 mm Hg | +70 b/min | -13 mm Hg | +40 b/min | -10 mm Hg | +21 b/min | -7 mm Hg | +9 b/min | -5 mm Hg | +21 b/min | -7 mm Hg | +12 b/min | 0 mm Hg | +3 b/min | +2 mm Hg | +10 b/min | Change in HR, 5 hr after dose, first day ([1]; 2 mg/kg os): -28 b/min; Change in BP, 5 hrs after dose, first day ([1]; 2 mg/kg os): +18 mm Hg; Change in BP, 1 hr after dose, fourth day ([1]; 2 mg/kg os): +7 mm Hg; Change in HR, 1 hr after dose, fourth day ([1]; 2 mg/kg os): +43 b/min; Change in HR, 5 hr after dose, fourth day ([1]; 2 mg/kg os): +23 b/min; Change in BP, 5 hrs after dose, fourth day ([1]; 2 mg/kg os): +15 mm Hg; Change in HR, 1 hr after dose, first day ([1]; 5 mg/kg os): -45 b/min; Change in HR, 5 hr after dose, first day ([1]; 5 mg/kg os): +12 b/min; Change in HR, 1 hr after dose, fourth day ([1]; 5 mg/kg os): +10 b/min; Change in HR, 5 hr after dose, fourth day ([1]; 5 mg/kg os): +12 b/min; LD50 at 168 h [2]: 122 mg/kg |
